Results taken from ChEMBL document CHEMBL1201862, “PubChem BioAssay data set” (2004).
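Tested at 5 concentrations; 48 h exposure; 96-well plates; endpoints linearly interpolated, else capped at highest concentration. GI50 marks 50% less growth.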 The source made the active and inactive calls. Cut-off read from the data, not from the text of the source: active = GI50 up to about 1.1 µM and inactive = higher.

Tests used:
Assay in all cases: NCI tumour cell line growth inhibition, 48 h
786-0 = tested on: 786-0
ACHN = tested on: ACHN
BT-549 = tested on: BT-549
HOP-62 = tested on: HOP-62
HT-29 = tested on: HT-29
K562 = tested on: K562
KM12 = tested on: KM12
MCF7 = tested on: MCF7
MDA-MB-435 = tested on: MDA-MB-435
MDA-N = tested on: MDA-N
NCI-H460 = tested on: NCI-H460
NCI/ADR-RES = tested on: NCI/ADR-RES
OVCAR-3 = tested on: OVCAR-3
OVCAR-4 = tested on: OVCAR-4
OVCAR-5 = tested on: OVCAR-5
SF-295 = tested on: SF-295
SK-MEL-28 = tested on: SK-MEL-28
SK-MEL-2 = tested on: SK-MEL-2
SK-OV-3 = tested on: SK-OV-3
SNB-19 = tested on: SNB-19

Structure (SMILES)	GI50 (786-0)	GI50 (ACHN)	GI50 (BT-549)	GI50 (HOP-62)	GI50 (HT-29)	GI50 (K562)	GI50 (KM12)	GI50 (MCF7)	GI50 (MDA-MB-435)	GI50 (MDA-N)	GI50 (NCI-H460)	GI50 (NCI/ADR-RES)	GI50 (OVCAR-3)	GI50 (OVCAR-4)	GI50 (OVCAR-5)	GI50 (SF-295)	GI50 (SK-MEL-28)	GI50 (SK-MEL-2)	GI50 (SK-OV-3)	GI50 (SNB-19)
CCOC(=O)/C=C(\C(=O)OCC)n1cc(C)c(=O)n(Cc2cnnn2COCCOC(C)=O)c1=O	3.93 µM (inactive)	2.67 µM (inactive)	5.52 µM (inactive)	22.2 µM (inactive)	8.59 µM (inactive)	3.4 µM (inactive)	16.4 µM (inactive)	5.31 µM (inactive)	8.97 µM (inactive)	19.9 µM (inactive)	11.9 µM (inactive)	16.1 µM (inactive)	11.7 µM (inactive)	15.6 µM (inactive)	17.1 µM (inactive)	25.8 µM (inactive)	9.89 µM (inactive)	19.1 µM (inactive)	55.7 µM (inactive)	35.2 µM (inactive)
COC(=O)CN1Cc2cc(C)cc(c2O)CN(CC(=O)OC)Cc2cc(C)cc(c2O)CN(CC(=O)OC)Cc2cc(C)cc(c2O)CN(CC(=O)OC)Cc2cc(C)cc(c2O)C1	10.2 µM (inactive)	11.5 µM (inactive)	24.8 µM (inactive)	9.51 µM (inactive)	8.79 µM (inactive)	21.8 µM (inactive)	32.6 µM (inactive)	14.1 µM (inactive)	26.9 µM (inactive)	> 50 µM (inactive)	6.85 µM (inactive)	19.5 µM (inactive)	7.05 µM (inactive)	12.2 µM (inactive)	9.46 µM (inactive)	17.5 µM (inactive)	21.9 µM (inactive)	13.6 µM (inactive)	11.9 µM (inactive)	16 µM (inactive)
CN(C)c1ccc(C(C#N)N2CCCN(C(C#N)c3ccc(N(C)C)cc3)C2c2ccc(N(C)C)cc2)cc1 (stereo not drawn)	> 100 µM (inactive)	> 100 µM (inactive)	> 100 µM (inactive)	> 100 µM (inactive)	> 100 µM (inactive)	> 100 µM (inactive)	> 100 µM (inactive)	> 100 µM (inactive)	> 100 µM (inactive)	> 100 µM (inactive)	–	> 100 µM (inactive)	> 100 µM (inactive)	> 100 µM (inactive)	> 100 µM (inactive)	> 100 µM (inactive)	> 100 µM (inactive)	> 100 µM (inactive)	> 100 µM (inactive)	> 100 µM (inactive)
CCOC(=O)C(NC(=O)c1ccccc1)(Nc1ccc(S(=O)(=O)Nc2ccc(OC)nn2)cc1)C(F)(F)F (stereo not drawn)	> 100 µM (inactive)	> 100 µM (inactive)	> 100 µM (inactive)	> 100 µM (inactive)	> 100 µM (inactive)	> 100 µM (inactive)	> 100 µM (inactive)	> 100 µM (inactive)	> 100 µM (inactive)	> 100 µM (inactive)	> 100 µM (inactive)	> 100 µM (inactive)	> 100 µM (inactive)	> 100 µM (inactive)	> 100 µM (inactive)	> 100 µM (inactive)	> 100 µM (inactive)	> 100 µM (inactive)	> 100 µM (inactive)	> 100 µM (inactive)
Clc1ccc(C2c3ccccc3-c3nc4ccccc4n32)cc1 (stereo not drawn)	17.7 µM (inactive)	23 µM (inactive)	43.5 µM (inactive)	16.9 µM (inactive)	20.9 µM (inactive)	> 22.4 µM (inactive)	13 µM (inactive)	18.3 µM (inactive)	32.7 µM (inactive)	51.3 µM (inactive)	19.7 µM (inactive)	11.8 µM (inactive)	12.6 µM (inactive)	15.9 µM (inactive)	25.4 µM (inactive)	3.48 µM (inactive)	> 56.8 µM (inactive)	22.2 µM (inactive)	3.34 µM (inactive)	31.7 µM (inactive)
COC1=C(OC)C(=O)C(Cc2c(C)nc3sccn23)=C(C)C1=O	19.1 µM (inactive)	14.9 µM (inactive)	16.1 µM (inactive)	17.5 µM (inactive)	16.4 µM (inactive)	18.7 µM (inactive)	15.2 µM (inactive)	20.1 µM (inactive)	13.6 µM (inactive)	12.7 µM (inactive)	20 µM (inactive)	14.4 µM (inactive)	15 µM (inactive)	2.92 µM (inactive)	16.8 µM (inactive)	15 µM (inactive)	11 µM (inactive)	16.6 µM (inactive)	13.7 µM (inactive)	16 µM (inactive)
O=C(Oc1ccccc1)N1c2ccccc2[C@@]23O[C@]24CCC[C@H]3C#C/C=C\C#C[C@H]14	10.5 µM (inactive)	–	12.9 µM (inactive)	12.9 µM (inactive)	11.2 µM (inactive)	15.6 µM (inactive)	13.6 µM (inactive)	6.5 µM (inactive)	16.1 µM (inactive)	13.6 µM (inactive)	< 0.01 µM (active)	14.4 µM (inactive)	13.3 µM (inactive)	6.85 µM (inactive)	11.8 µM (inactive)	17.1 µM (inactive)	14 µM (inactive)	11.8 µM (inactive)	0.173 µM (active)	15.7 µM (inactive)
